Laboratory results published in US20220249441A1, “Homodimeric Tobramycin Adjuvant Repurposes Novobiocin as an Effective Antibacterial Agent Against Gram-Negative Bacteria” (priority 2019, published 2022).
Values after ≈ are worked out from the molar mass of the structure shown.

Columns and labels:
[1] = tested on: P. aeruginosa PAO1 and efflux deficient mutants, MDR/XDR isolates; test: microbe, parasite or virus in culture; format: cell-based, Pseudomonas aeruginosa
Experimental: Antimicrobial Susceptibility Assay. The in vitro antimicrobial activity of all compounds/antibiotics against a panel of bacteria was evaluated by microbroth dilution method in accordance with the Clinical and Laboratory Standards Institute (CLSI) guidelines (using ATCC strains as quality control strains) (54). […] The broth with or without bacterial cells was used as positive or negative control, respectively.

P. aeruginosa PAO1 [2] = test: Outer membrane permeabilization assay (NPN uptake); format: cell-based, Pseudomonas aeruginosa
Experimental: Outer Membrane Permeabilization Assay. […] Briefly, an overnight grown P. aeruginosa PAO1 culture was subcultured (1 in 100) in fresh LB broth and grown to a mid-logarithmic phase (approximately 2 h, OD600=0.5-0.6). The cells were harvested by centrifuging for 10 min at 1000 g and room temperature, washed twice in PBS, and resuspended in half volume of PBS. This suspension was used in standard microtiter plate assay. […] PMBN, a known outer membrane permeabilizer, served as a positive control while cells +NPN (without test compounds) served as a negative control. Four independent replicates were conducted, and the data were corrected for any background fluorescence.

[3] = tested on: A. baumannii ATCC 17978 and resistant mutants; test: microbe, parasite or virus in culture; format: cell-based, Acinetobacter baumannii; conditions: Acinetobacter baumannii
Experimental: Antimicrobial Susceptibility Assay. The in vitro antimicrobial activity of all compounds/antibiotics against a panel of bacteria was evaluated by microbroth dilution method in accordance with the Clinical and Laboratory Standards Institute (CLSI) guidelines (using ATCC strains as quality control strains) (54). Overnight grown bacterial cultures were diluted in saline to achieve a 0.5 McFarland turbidity, followed by 1:50 dilution in Mueller-Hinton broth (MHB) for inoculation to a final concentration of approximately 5×10^5 CFU/mL. […] The lowest concentration that prevented the visible growth of bacteria was defined as the MIC for each antimicrobial agent. The broth with or without bacterial cells was used as positive or negative control, respectively.
Development of Resistance Study. […] Tobramycin and colistin were included as controls. At 24-hour intervals, the cultures were assessed for growth. […] This serial passaging was repeated for 8 days.

P. aeruginosa PAO1 [4] = test: Time-kill assay; format: cell-based, Pseudomonas aeruginosa; conditions: LB media, novobiocin 32 μg/ml, compound 1 7.1 μM, 24 h
Experimental: (§1) Time-kill Assay. […] At specific time intervals (0, 1, 3, 6, 9, and 24 h), 100 μl was taken from each sample, serially diluted in sterile PBS, plated on LB agar plates, and incubated at 37° C. in a humid 5% CO2-enriched atmosphere. Bacterial colonies were counted after 20 h of incubation.

A. baumannii ATCC 17978 = test: Time-kill assay; format: cell-based, Acinetobacter baumannii; conditions: novobiocin 32 μg/ml, after 24 h
Experimental: as §1

E. coli ATCC 25922 = test: Time-kill assay; format: cell-based, Escherichia coli; conditions: novobiocin 32 μg/ml, compound 1 7.1 μM
Experimental: as §1

## NC[C@H]1O[C@H](O[C@H]2[C@H](OCCCCc3cn(CCCCO[C@@H]4[C@@H](O[C@H]5O[C@H](CO)[C@@H](O)[C@H](N)[C@H]5O)[C@H](N)C[C@H](N)[C@H]4O[C@H]4O[C@H](CN)[C@@H](O)C[C@H]4N)nn3)[C@@H](O[C@H]3O[C@H](CO)[C@@H](O)[C@H](N)[C@H]3O)[C@H](N)C[C@@H]2N)[C@H](N)C[C@@H]1O.O=C(O)C(F)(F)F.O=C(O)C(F)(F)F.O=C(O)C(F)(F)F.O=C(O)C(F)(F)F.O=C(O)C(F)(F)F.O=C(O)C(F)(F)F.O=C(O)C(F)(F)F.O=C(O)C(F)(F)F.O=C(O)C(F)(F)F.O=C(O)C(F)(F)F [Compound 1, Tobramycin Homodimer 1]
[1]; PAO1 (wild-type)
  MIC of Compound 1: >128 µg/mL
[1]; PAO200 (efflux-deficient)
  MIC of Compound 1: >128 µg/mL
[1]; PAO750 (efflux-deficient)
  MIC of Compound 1: >128 µg/mL
P. aeruginosa PAO1 [2]
  outer membrane permeabilization (NPN fluorescence): dose-dependent
P. aeruginosa PAO1 [2]; compound 1 at 16 μg/ml
  NPN fluorescence relative to PMBN (8 μg/ml): increased fluorescence

## CO[C@@H]1[C@@H](OC(N)=O)[C@@H](O)[C@H](Oc2ccc3c(O)c(NC(=O)c4ccc(O)c(CC=C(C)C)c4)c(=O)oc3c2C)OC1(C)C [Novobiocin]
[3]; ATCC17978, 18 h, Mutant C (seven serial passages, sub-MICs novobiocin + 7.1 μM compound 1)
  MIC: 128 µg/mL
[3]; ATCC17978, Mutant A (seven serial passages, sub-MICs novobiocin)
  MIC: 2050 µg/mL (≈ 3.34 mM)
[3]; ATCC17978, Mutant B (seven serial passages, sub-MICs colistin)
  MIC: < 0.031 µg/mL
P. aeruginosa PAO1 [4]
  time-kill outcome: bacterial growth identical to their respective controls
A. baumannii ATCC 17978
  time-kill outcome: bacteriostatic
E. coli ATCC 25922
  incubation time after which bactericidal: 24 h
